pKa data for five compounds are collected here from patent US6800418B2, “Fluorine-containing photosensitive polymer having hydrate structure and resist composition comprising the same” (Samsung Electronics, priority 2001, dated 2004).

A short description of this data set: Measurement of pKa Value. The format is physicochemical. The following applies: pKa value of monomers, measured to identify whether the structure is dissolvable in developers. The protocol: To determine whether a repeating monomer unit of a polymer according to the present invention has a structure dissolvable in common developers, pKa value was measured.
The pKa value was measured for a variety of monomers having different structures to identify whether hydrate is dissolvable in developers.

With `C=Cc1ccc(O)cc1` [MONOMER 2, vinylphenol], the pKa (usually the negative logarithm of the acid dissociation constant) amounted to 9.97.

The compound `C=C(C)C(=O)O` [MONOMER 3] registered a pKa of 4.58.

The compound `OC(CC1CC2C=CC1C2)(C(F)(F)F)C(F)(F)F` (centres unmarked) [MONOMER 4] came in with a pKa of 9.67.

Turning to `C=Cc1ccc(C(O)(C(F)(F)F)C(F)(F)F)cc1` [MONOMER 5], the pKa is 8.96.

The compound `OC(C1CC2C=CC1C2)C(F)(F)C(O)(O)C(F)(F)F` (centres unmarked) [MONOMER 6] gave a pKa of 8.33.
